Test system: serum ferritin
Experiment: Serum ferritin in chronic hepatitis C patients after oral administration for 24 weeks
Type: in vivo, human (patients suffering from chronic hepatitis C)
Settings: patients with chronic hepatitis C, 50 mg/day or 200 mg/day in two divided doses, CLIA, percentage change vs level before administration
Procedure: To patients suffering from chronic hepatitis C, 22β-methoxyolean-12-ene-3β,24(4β)-diol was orally administered for 24 weeks, at a daily dose of 50 mg/day or 200 mg/day. The administration of 22β-methoxyolean-12-ene-3β,24(4β)-diol in each administration group was carried out by orally administering half of each daily dose twice a day after eating breakfast and dinner. For example, in the 50 mg/day administration group, each day 25 mg of the drug was orally administered after breakfast and 25 mg of the drug was orally administered after dinner. Immediately after the beginning of the administration, and after 2, 4, 8, 12, 16, 20, and 24 weeks from the beginning of the administration, serum samples were collected to determine serum ferritin contained in the samples. […] Serum ferritin was determined by a chemiluminescence immunoassay (CLIA) with reference to a method described in a protocol attached to Chemilumi ACS-Ferritin II (Bayer Medical). Each serum ferritin level contained in each serum sample collected was indicated as percentage, with the serum ferritin level before the administration of 22β-methoxyolean-12-ene-3β,24(4β)-diol regarded as […], and an average and a median of all patients were calculated.

In the case of `CO[C@@H]1CC(C)(C)CC2C3=CCC4[C@@]5(C)CC[C@H](O)[C@](C)(CO)C5CC[C@@]4(C)[C@]3(C)CC[C@]21C` (stereo partly drawn) [22β-methoxyolean-12-ene-3β,24(4β)-diol], the serum ferritin level is reported as “serum ferritin was lowered”.
